Test [1] has as its system TrkA-His tagged extracellular domain protein (Ala 34-Gly423). In words: MST binding of CD44v3 mimetic peptides to TrkA. Particulars: TrkA-His 200 nM labelled with RED-Tris-NTA, PBS-T. On the procedure:
MST was conducted using an NT.115 A Pico MST instrument (Nano Temper Technologies GmbH) equipped with red and blue filter sets. The TrkA-His tagged extracellular domain protein (Ala 34-Gly423) (9966-TK-050; R&D Systems, United Kingdom), diluted to 200 nM in PBS-T buffer (supplied by the vendor), was labeled using a Monolith His-Tag Labeling Kit with RED-Tris-NTA (Nano Temper). The RED-Tris-NTA dye was diluted in PBS-T to 100 nM. The mix was incubated at RT in the dark for 30 min. Next, an extract expressing CD44v3-labeled protein (CD44v3-His) and ligand and/or TrkA was mixed at a 1:1 ratio and incubated at RT in the dark for 15 min. For the binding check, peptides and TrkA-His were used. Capillaries were filled individually and loaded into the instrument. The data were acquired using high MST power and 100% LED. The data were analyzed using MO Control Software (Nano Temper).
Fig. 2 The C-terminal region of CD44v3 and the His112 residue of TrkA are involved in the CD44v3/TrkA interaction. TrkA/CD44v3 complex association was detected by the proximity ligation assay (PLA) in wild-type TrkA- or TrkA_H112A- and CD44v3-expressing COS-7 cells. Proximity ligation assays were performed after 0, 5 and 30 min of NGF treatment (100 ng/ml). Representative images of signals detected by PLA (A) and their quantification (B). Sequence of CD44 exon variant 3 and deletion mutant Δ3 or Δ4 (C). TrkA/CD44v3 complex association was detected by PLA in wild-type TrkA and CD44v3 wild type or CD44v3 deleted mutant Δ3 or Δ4 expressing COS-7 (D, E). Sequence of CD44v3 mimetic peptides (F) and structure (G). TrkA binding to CD44v3 mimetic peptides by microscale thermophoresis (H) and effects of CD44v3 mimetic peptides 3 (RDRHLSFSGSG) and 4 ([…]) on TrkA/CD44v3 complex formation (I, J). Quantification of PLA was performed using ImageJ software (30 fields per condition of three different experiments). Statistical analyses were performed using one-way ANOVA followed by Bonferroni’s posttest.
(§1) To block the TrkA-CD44v3 association, 4 mimetic peptides of CD44v3 were designed corresponding to zone 1 [(K) STSSNTISAG], zone 2 (WEPNEENEDE), zone 3 (RDRHLSFSGSG) and zone 4 (IDDDEDFISST) (Fig. 2F & G). The binding capacities of the CD44v3 mimetic peptides to TrkA were then measured by MST (Fig. 2H). […] To confirm mimetic peptide 4 binding, we assessed its ability to bind TrkA using nanoscale differential scanning fluorimetry (nanoDSF; Supplementary Fig. 6A & B).

Another test has as its system TrkA. The experiment in a line: nanoDSF peptide binding to TrkA. The conditions noted are these: nanoscale differential scanning fluorimetry, Supplementary Fig. 6A & B. On the procedure: as §1
Supplementary file 13046_2022_2314_MOESM3_ESM.pdf: Additional file 3: Supplementary Figure 1. Validation of the ectopic expression of CD44 and/or TrkA in COS-7 cells. The expression of all CD44 isoforms (A), CD44 variant 3 (B), CD44 variant 6 (C) and TrkA ([…]; D) was evaluated by RT–qPCR (normalized using PUM-1). No expression of CD44, CD44 variants [3 or 6] or TrkA was detected in COS-7 cells (A-D) compared with that in cells transfected with the expression plasmid carrying each protein. […] Quantification of the PLA results was performed using ImageJ software (30 randomly chosen fields per condition of three different experiments). […] CD44v3 and CD44v6 levels at the plasma membrane were assessed by flow cytometry (A-D). The plasma membrane and total TrkA and CD44v3 levels were also quantified by confocal microscopy (E-H). […] The CD44v3/NGF interaction was evaluated using microscale thermophoresis (MST). […]
(In general: DSF heats the sample and reads unfolding from a dye or from intrinsic fluorescence.)

The record followed here is PMC8962522, “Direct interaction of TrkA/CD44v3 is essential for NGF-promoted aggressiveness of breast cancer cells” (Journal of Experimental & Clinical Cancer Research : CR, 2022).

On to “IDDDEDFISST [Peptide 4, mimetic peptide 4 (…) corresponding to the C-terminal region of CD44v3]”, for which the “binding to TrkA by MST (in words)” value in test [1] is listed as “could bind TrkA”. In addition, the “binding to TrkA by nanoDSF (in words)” value is on record as “bound TrkA” with TrkA and “binds to TrkA” in the test with TrkA (listed as P4).
